{"source": "PubChem BioAssay AID1259407", "about": "(Chemical Carcinogenesis Research Information System (CCRIS), 2018)", "test_system": "CCRIS mutagenicity, Ames/micronucleus/aberration tests", "assay": "CCRIS mutagenicity studies", "note": "Active and inactive are the calls of the source. No rule for the calls is given here.", "data": [{"smiles": "O[C@@H]1c2ccc3cc4ccccc4cc3c2[C@@H]2OC2[C@@H]1O", "note": "(some centres not stated)", "values": [{"measurement": "mutagenic call", "setting": "Test System: CHINESE HAMSTER V-79, Strain/Indicator: V-79/8-AZAGUANINE, Metabolic Activation: NONE, Method: STANDARD PLATE", "value": "active; positive"}]}, {"smiles": "C=C1C(=O)O[C@@H]2CCN3CC=C(COC(=O)[C@](C)(O)[C@H](C)[C@H]1C)[C@H]23", "values": [{"measurement": "mutagenic call", "setting": "Test System: AMES SALMONELLA TYPHIMURIUM, Strain/Indicator: TA100, Metabolic Activation: RAT, LIVER, S-9, SODIUM PHENOBARBITAL AND BETA-NAPHTHOFLAVONE, Method: PREINCUBATION", "value": "inactive; negative"}]}, {"smiles": "CC(C)n1c(/C=C/[C@H](O)C[C@H](O)CC(=O)O)c(-c2ccc(F)cc2)c2ccccc21", "values": [{"measurement": "mutagenic call", "setting": "End Point: AMES SALMONELLA TYPHIMURIUM, Test System: TA98, Metabolic Activation: NONE, Method: STANDARD PLATE", "value": "inactive; negative"}, {"measurement": "mutagenic call", "setting": "End Point: AMES SALMONELLA TYPHIMURIUM, Test System: TA98, Metabolic Activation: RAT, LIVER, S-9, AROCLOR 1254, Method: STANDARD PLATE", "value": "inactive; negative"}, {"measurement": "mutagenic call", "setting": "End Point: AMES SALMONELLA TYPHIMURIUM, Test System: TA100, Metabolic Activation: NONE, Method: STANDARD PLATE", "value": "inactive; negative"}, {"measurement": "mutagenic call", "setting": "End Point: AMES SALMONELLA TYPHIMURIUM, Test System: TA100, Metabolic Activation: RAT, LIVER, S-9, AROCLOR 1254, Method: STANDARD PLATE", "value": "inactive; negative"}, {"measurement": "mutagenic call", "setting": "End Point: AMES SALMONELLA TYPHIMURIUM, Test System: TA1535, Metabolic Activation: NONE, Method: STANDARD PLATE", "value": "inactive; negative"}, {"measurement": "mutagenic call", "setting": "End Point: AMES SALMONELLA TYPHIMURIUM, Test System: TA1535, Metabolic Activation: RAT, LIVER, S-9, AROCLOR 1254, Method: STANDARD PLATE", "value": "inactive; negative"}, {"measurement": "mutagenic call", "setting": "End Point: AMES SALMONELLA TYPHIMURIUM, Test System: TA1537, Metabolic Activation: NONE, Method: STANDARD PLATE", "value": "inactive; negative"}, {"measurement": "mutagenic call", "setting": "End Point: AMES SALMONELLA TYPHIMURIUM, Test System: TA1537, Metabolic Activation: RAT, LIVER, S-9, AROCLOR 1254, Method: STANDARD PLATE", "value": "inactive; negative"}, {"measurement": "mutagenic call", "setting": "End Point: AMES SALMONELLA TYPHIMURIUM, Test System: TA1538, Metabolic Activation: NONE, Method: STANDARD PLATE", "value": "inactive; negative"}, {"measurement": "mutagenic call", "setting": "End Point: AMES SALMONELLA TYPHIMURIUM, Test System: TA1538, Metabolic Activation: RAT, LIVER, S-9, AROCLOR 1254, Method: STANDARD PLATE", "value": "inactive; negative"}, {"measurement": "mutagenic call", "setting": "End Point: E. COLI, Test System: WP2 UVRA/PKM101, Metabolic Activation: NONE, Method: STANDARD PLATE", "value": "inactive; negative"}, {"measurement": "mutagenic call", "setting": "End Point: E. COLI, Test System: WP2 UVRA/PKM101, Metabolic Activation: RAT, LIVER, S-9, AROCLOR 1254, Method: STANDARD PLATE", "value": "inactive; negative"}, {"measurement": "mutagenic call", "setting": "End Point: E. COLI, Test System: WP2 UVRA, Metabolic Activation: NONE, Method: STANDARD PLATE", "value": "inactive; negative"}, {"measurement": "mutagenic call", "setting": "End Point: E. COLI, Test System: WP2 UVRA, Metabolic Activation: RAT, LIVER, S-9, AROCLOR 1254, Method: STANDARD PLATE", "value": "inactive; negative"}, {"measurement": "mutagenic call", "setting": "End Point: IN VITRO CHROMOSOMAL ABERRATIONS, Test System: CHINESE HAMSTER V79A, Metabolic Activation: NONE", "value": "inactive; negative"}, {"measurement": "mutagenic call", "setting": "End Point: IN VITRO CHROMOSOMAL ABERRATIONS, Test System: CHINESE HAMSTER V79A, Metabolic Activation: RAT, LIVER, S-9, AROCLOR 1254", "value": "inactive; negative"}, {"measurement": "mutagenic call", "setting": "End Point: IN VIVO MICRONUCLEUS, Test System: BONE MARROW POLYCHROMATIC ERYTHROCYTES, Species: MOUSE, Strain/Sex: CD-1/MALE, FEMALE, Route: GAVAGE", "value": "inactive; negative"}, {"measurement": "mutagenic call", "setting": "Test System: AMES SALMONELLA TYPHIMURIUM, Strain/Indicator: TA98, Metabolic Activation: NONE, Method: STANDARD PLATE", "value": "inactive; negative"}, {"measurement": "mutagenic call", "setting": "Test System: AMES SALMONELLA TYPHIMURIUM, Strain/Indicator: TA98, Metabolic Activation: RAT, LIVER, S-9, AROCLOR 1254, Method: STANDARD PLATE", "value": "inactive; negative"}, {"measurement": "mutagenic call", "setting": "Test System: AMES SALMONELLA TYPHIMURIUM, Strain/Indicator: TA100, Metabolic Activation: NONE, Method: STANDARD PLATE", "value": "inactive; negative"}, {"measurement": "mutagenic call", "setting": "Test System: AMES SALMONELLA TYPHIMURIUM, Strain/Indicator: TA100, Metabolic Activation: RAT, LIVER, S-9, AROCLOR 1254, Method: STANDARD PLATE", "value": "inactive; negative"}, {"measurement": "mutagenic call", "setting": "Test System: AMES SALMONELLA TYPHIMURIUM, Strain/Indicator: TA1535, Metabolic Activation: NONE, Method: STANDARD PLATE", "value": "inactive; negative"}, {"measurement": "mutagenic call", "setting": "Test System: AMES SALMONELLA TYPHIMURIUM, Strain/Indicator: TA1535, Metabolic Activation: RAT, LIVER, S-9, AROCLOR 1254, Method: STANDARD PLATE", "value": "inactive; negative"}, {"measurement": "mutagenic call", "setting": "Test System: AMES SALMONELLA TYPHIMURIUM, Strain/Indicator: TA1537, Metabolic Activation: NONE, Method: STANDARD PLATE", "value": "inactive; negative"}, {"measurement": "mutagenic call", "setting": "Test System: AMES SALMONELLA TYPHIMURIUM, Strain/Indicator: TA1537, Metabolic Activation: RAT, LIVER, S-9, AROCLOR 1254, Method: STANDARD PLATE", "value": "inactive; negative"}, {"measurement": "mutagenic call", "setting": "Test System: AMES SALMONELLA TYPHIMURIUM, Strain/Indicator: TA1538, Metabolic Activation: NONE, Method: STANDARD PLATE", "value": "inactive; negative"}, {"measurement": "mutagenic call", "setting": "Test System: AMES SALMONELLA TYPHIMURIUM, Strain/Indicator: TA1538, Metabolic Activation: RAT, LIVER, S-9, AROCLOR 1254, Method: STANDARD PLATE", "value": "inactive; negative"}, {"measurement": "mutagenic call", "setting": "Test System: CHINESE HAMSTER FIBROBLASTS, Strain/Indicator: CHINESE HAMSTER V79A/HGPRT, Metabolic Activation: NONE", "value": "inactive; negative"}, {"measurement": "mutagenic call", "setting": "Test System: CHINESE HAMSTER FIBROBLASTS, Strain/Indicator: CHINESE HAMSTER V79A/HGPRT, Metabolic Activation: RAT, LIVER, S-9, AROCLOR 1254", "value": "inactive; negative"}, {"measurement": "mutagenic call", "setting": "Test System: CHINESE HAMSTER V-79, Strain/Indicator: V-79 (HGPRT), Metabolic Activation: NONE", "value": "inactive; negative"}, {"measurement": "mutagenic call", "setting": "Test System: CHINESE HAMSTER V-79, Strain/Indicator: V-79 (HGPRT), Metabolic Activation: RAT, LIVER, S-9, AROCLOR 1254", "value": "inactive; negative"}, {"measurement": "mutagenic call", "setting": "Test System: E. COLI, Strain/Indicator: WP2 UVRA (PKM101), Metabolic Activation: NONE, Method: STANDARD PLATE", "value": "inactive; negative"}, {"measurement": "mutagenic call", "setting": "Test System: E. COLI, Strain/Indicator: WP2 UVRA (PKM101), Metabolic Activation: RAT, LIVER, S-9, AROCLOR 1254, Method: STANDARD PLATE", "value": "inactive; negative"}, {"measurement": "mutagenic call", "setting": "Test System: E. COLI, Strain/Indicator: WP2 UVRA, Metabolic Activation: NONE, Method: STANDARD PLATE", "value": "inactive; negative"}, {"measurement": "mutagenic call", "setting": "Test System: E. COLI, Strain/Indicator: WP2 UVRA, Metabolic Activation: RAT, LIVER, S-9, AROCLOR 1254, Method: STANDARD PLATE", "value": "inactive; negative"}]}]}
